In patent US20260265238A1, “COMPOUNDS AND PHARMACEUTICAL COMPOSITIONS THAT DEGRADE SWI/SNF-RELATED MATRIX-ASSOCIATED ACTIN-DEPENDENT REGULATOR OF CHROMATIN SUBFAMILY A” (Plexium, Inc., priority 2023, published 2026):

Assays:
[1] = molecular target: T1, SMARCA2-HiBiT HeLa cells (protein which is expressed from the SMARCA2 gene) (Homo sapiens, UniProt P51531); assay: SMARCA2 degradation assay (HiBiT-fusion HeLa cell line, 24 h, luminescence); assay type: cell-based
T1 construct: protein which is expressed from the SMARCA2 and SMARCA4 genes; host or cells: HeLa (SMARCA2-HiBiT engineered line)
T1 sequence (P51531 whole entry, the tested form may be a part): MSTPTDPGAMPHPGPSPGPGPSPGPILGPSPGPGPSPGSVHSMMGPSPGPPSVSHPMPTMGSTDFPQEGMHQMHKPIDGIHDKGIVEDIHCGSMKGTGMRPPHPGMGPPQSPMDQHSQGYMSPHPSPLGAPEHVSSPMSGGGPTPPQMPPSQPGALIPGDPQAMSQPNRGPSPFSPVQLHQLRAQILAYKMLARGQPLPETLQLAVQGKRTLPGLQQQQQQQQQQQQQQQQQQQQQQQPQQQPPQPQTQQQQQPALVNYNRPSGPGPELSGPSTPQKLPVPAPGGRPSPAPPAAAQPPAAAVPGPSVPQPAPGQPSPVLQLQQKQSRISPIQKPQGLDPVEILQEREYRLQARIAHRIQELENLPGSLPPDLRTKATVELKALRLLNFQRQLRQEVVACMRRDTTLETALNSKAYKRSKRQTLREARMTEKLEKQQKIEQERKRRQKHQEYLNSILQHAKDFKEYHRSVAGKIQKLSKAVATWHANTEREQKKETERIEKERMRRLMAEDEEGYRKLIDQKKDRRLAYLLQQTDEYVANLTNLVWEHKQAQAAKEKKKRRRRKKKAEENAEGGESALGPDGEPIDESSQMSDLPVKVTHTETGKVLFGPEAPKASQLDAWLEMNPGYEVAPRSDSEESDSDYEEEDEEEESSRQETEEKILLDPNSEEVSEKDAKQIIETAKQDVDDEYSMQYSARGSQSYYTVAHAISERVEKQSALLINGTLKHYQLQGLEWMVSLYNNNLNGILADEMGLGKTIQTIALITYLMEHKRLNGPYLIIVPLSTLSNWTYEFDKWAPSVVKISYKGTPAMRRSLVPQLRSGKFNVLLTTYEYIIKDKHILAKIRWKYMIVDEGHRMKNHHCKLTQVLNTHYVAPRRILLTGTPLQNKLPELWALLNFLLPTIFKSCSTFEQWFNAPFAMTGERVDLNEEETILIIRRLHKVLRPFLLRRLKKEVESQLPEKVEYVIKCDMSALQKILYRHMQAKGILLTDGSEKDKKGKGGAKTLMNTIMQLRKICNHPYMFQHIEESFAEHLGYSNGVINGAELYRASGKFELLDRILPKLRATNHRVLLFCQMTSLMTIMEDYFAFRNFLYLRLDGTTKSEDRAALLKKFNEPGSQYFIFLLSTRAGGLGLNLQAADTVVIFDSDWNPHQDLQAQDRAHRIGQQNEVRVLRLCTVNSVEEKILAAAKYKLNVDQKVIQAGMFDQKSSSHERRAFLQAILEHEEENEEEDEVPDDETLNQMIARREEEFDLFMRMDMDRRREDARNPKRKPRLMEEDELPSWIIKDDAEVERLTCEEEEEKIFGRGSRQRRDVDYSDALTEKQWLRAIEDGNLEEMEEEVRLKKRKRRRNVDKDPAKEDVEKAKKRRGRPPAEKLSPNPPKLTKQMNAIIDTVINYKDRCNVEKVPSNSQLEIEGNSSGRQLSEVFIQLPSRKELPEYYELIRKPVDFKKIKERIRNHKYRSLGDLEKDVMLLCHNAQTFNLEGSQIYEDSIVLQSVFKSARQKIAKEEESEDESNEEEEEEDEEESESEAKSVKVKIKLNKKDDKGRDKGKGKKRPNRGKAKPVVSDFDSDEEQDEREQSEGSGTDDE
How it was run: (§1)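 HiBiT-fusion HeLa lines, 8,000 cells/well, overnight attachment; cpd 10-pt series (typically 10 μM–300 pM), 24 h, 37° C. Lysis with LgBiT + HiBiT substrate, 10 min shaking at RT, luminescence read. DC50 from dose-response fit; % degradation also scored at 1 μM.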

[2] = molecular target: T2, SMARCA4-HiBiT HeLa cells (protein which is expressed from the SMARCA4 gene) (Homo sapiens, UniProt P51532); assay: SMARCA4 degradation assay (HiBiT-fusion HeLa cell line, 24 h, luminescence); assay type: cell-based
T2 construct: protein which is expressed from the SMARCA2 and SMARCA4 genes; host or cells: HeLa (SMARCA4-HiBiT engineered line)
T2 sequence (P51532 whole entry, the tested form may be a part): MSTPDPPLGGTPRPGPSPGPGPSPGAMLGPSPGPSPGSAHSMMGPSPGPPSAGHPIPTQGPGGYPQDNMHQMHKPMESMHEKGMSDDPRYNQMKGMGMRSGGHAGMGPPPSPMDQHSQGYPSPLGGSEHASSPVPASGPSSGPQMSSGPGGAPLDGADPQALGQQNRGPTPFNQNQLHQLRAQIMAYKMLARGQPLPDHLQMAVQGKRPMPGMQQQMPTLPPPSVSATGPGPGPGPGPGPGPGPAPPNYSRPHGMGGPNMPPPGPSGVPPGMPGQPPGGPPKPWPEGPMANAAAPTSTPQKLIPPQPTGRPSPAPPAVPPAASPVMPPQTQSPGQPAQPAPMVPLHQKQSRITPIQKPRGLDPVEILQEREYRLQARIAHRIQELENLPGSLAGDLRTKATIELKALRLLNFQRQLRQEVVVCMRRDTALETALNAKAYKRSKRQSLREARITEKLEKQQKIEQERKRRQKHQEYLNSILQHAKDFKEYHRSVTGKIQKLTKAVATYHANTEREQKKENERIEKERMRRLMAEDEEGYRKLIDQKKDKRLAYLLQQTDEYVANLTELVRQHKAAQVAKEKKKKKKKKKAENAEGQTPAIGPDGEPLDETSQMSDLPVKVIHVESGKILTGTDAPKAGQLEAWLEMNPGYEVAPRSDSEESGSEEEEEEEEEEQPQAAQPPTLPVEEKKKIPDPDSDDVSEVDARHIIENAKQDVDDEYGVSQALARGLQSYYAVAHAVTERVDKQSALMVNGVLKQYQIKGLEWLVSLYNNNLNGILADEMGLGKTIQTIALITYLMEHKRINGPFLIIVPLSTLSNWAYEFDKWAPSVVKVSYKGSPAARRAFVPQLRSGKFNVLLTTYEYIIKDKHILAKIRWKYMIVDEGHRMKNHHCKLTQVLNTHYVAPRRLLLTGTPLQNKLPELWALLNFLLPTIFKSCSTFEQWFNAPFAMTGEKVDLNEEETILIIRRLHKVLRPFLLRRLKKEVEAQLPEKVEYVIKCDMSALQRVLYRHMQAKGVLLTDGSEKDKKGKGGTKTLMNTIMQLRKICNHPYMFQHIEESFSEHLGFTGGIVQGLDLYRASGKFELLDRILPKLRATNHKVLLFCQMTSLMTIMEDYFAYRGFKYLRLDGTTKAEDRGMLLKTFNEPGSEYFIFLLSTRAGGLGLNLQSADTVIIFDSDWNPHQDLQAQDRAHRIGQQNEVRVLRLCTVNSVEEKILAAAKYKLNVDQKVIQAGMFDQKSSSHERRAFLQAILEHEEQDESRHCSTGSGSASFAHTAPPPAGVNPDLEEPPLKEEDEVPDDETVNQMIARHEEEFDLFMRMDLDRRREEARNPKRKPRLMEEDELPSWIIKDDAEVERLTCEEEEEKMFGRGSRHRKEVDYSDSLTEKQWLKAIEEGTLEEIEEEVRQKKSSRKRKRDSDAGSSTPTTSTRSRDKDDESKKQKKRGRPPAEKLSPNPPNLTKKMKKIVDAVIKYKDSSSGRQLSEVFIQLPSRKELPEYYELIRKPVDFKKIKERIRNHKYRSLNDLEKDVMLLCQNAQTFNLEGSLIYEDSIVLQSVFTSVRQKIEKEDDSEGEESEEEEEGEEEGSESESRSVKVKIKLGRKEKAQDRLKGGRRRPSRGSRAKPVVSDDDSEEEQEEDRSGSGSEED
How it was run: as §1

DC50 [1]	SMARCA2 % Degradation @ 1 μM ([1]; 1 μM)	DC50 [2]	inhibition at 1 µM ([2]; 1 μM)	SMARCA2 % Degradation @ 1 μM ([1]; @ 1 μM)	inhibition at 1 µM ([2]; @ 1 μM)	Structure (SMILES)
< 50 nM	+++ (+++=>70%)	< 50 nM	30 to 70%			CC1CC(C)N1CC#Cc1cc(N2CCN(c3cc(-c4ccccc4O)nnc3N)CC[C@H]2C)ccn1 (stereo partly drawn) [Compound P-418, 0-{5-[(R)-4-{2-[3-(2,4-dimethyl-1-azetidinyl)-1-propynyl]-4-pyridy1}-5-methyl-1,4-diazepan-1-yl]-6-amino-3-pyridazinyl}phenol]
50 to 500 nM		50 to 500 nM		++ (++=30-70%)	30 to 70%	COC[C@@H](C)NCC#Cc1nccc(N2CCCN(c3cc(-c4ccccc4O)nnc3N)CC2)n1 [Compound P-277, 0-{5-[4-(2-{3-[(R)-2-methoxy-1-methylethylamino]-1-propynyl}-4-pyrimidinyl)-1,4-diazepan-1-yl]-6-amino-3-pyridazinyl}phenol]
500 to 5000 nM		500 to 5000 nM		++ (++=30-70%)	30 to 70%	CC(C)(C)OC(=O)N1CCC(C#Cc2nccc(N3CCCN(c4cc(-c5ccccc5O)nnc4N)CC3)n2)CC1 [Compound P-351, tert-butyl 4-[2-(4-{4-[3-amino-6-(o-hydroxyphenyl)-4-pyridazinyl]-1,4-diazepan-1-yl}-2-pyrimidinyl)ethynyl]-1-piperidinecarboxylate]
50 to 500 nM		50 to 500 nM		++ (++=30-70%)	< 30%	C[C@H]1CCN(c2cc(-c3ccccc3O)nnc2N)CCN1c1ccnc(C#CCN(C)CC(F)(F)F)n1 [Compound P-217, o-{5-[(S)-4-(2-{3-[N-methyl(2,2,2-trifluoroethyl)amino]-1-propynyl}-4-pyrimidinyl)-5-methyl-1,4-diazepan-1-yl]-6-amino-3-pyridaziny1}phenol]
< 50 nM		< 50 nM		+++ (+++=>70%)	> 70%	CN(CC#Cc1nccc(N2CCCN(c3cc(-c4ccccc4O)nnc3N)CC2)n1)C(=O)c1cc2ncccn2n1 [Compound P-24, N-(3-(4-(4-(3-amino-6-(2-hydroxyphenyl)pyridazin-4-yl)-1,4-diazepan-1-yl)pyrimidin-2-yl)prop-2-yn-1-yl)-N-methylpyrazolo[1,5-a]pyrimidine-2-carboxamide]
< 50 nM		< 50 nM		++ (++=30-70%)	< 30%	CC1CC(C)N1CC#Cc1nccc(N2CCN(c3cc(-c4ccccc4O)nnc3N)CC[C@H]2C)n1 (stereo partly drawn) [Compound P-249, o-{5-[(R)-4-{2-[3-(2,4-dimethyl-1-azetidinyl)-1-propynyl]-4-pyrimidinyl}-5-methyl-1,4-diazepan-1-yl]-6-amino-3-pyridaziny1} phenol]
50 to 500 nM		50 to 500 nM		++ (++=30-70%)	30 to 70%	COC[C@H](C)NCC#Cc1nccc(N2CCCN(c3cc(-c4ccccc4O)nnc3N)CC2)n1 [Compound P-276, 0-{5-[4-(2-{3-[(S)-2-methoxy-1-methylethylamino]-1-propynyl}-4-pyrimidinyl)-1,4-diazepan-1-yl]-6-amino-3-pyridazinyl}phenol]
50 to 500 nM		50 to 500 nM		++ (++=30-70%)	30 to 70%	C[C@@H]1CCN(c2cc(-c3ccccc3O)nnc2N)CCN1c1ccnc(C#CCN2CC(F)(F)C2)n1 [Compound P-252, o-{5-[(R)-4-{2-[3-(3,3-difluoro-1-azetidinyl)-1-propynyl]-4-pyrimidinyl}-5-methyl-1,4-diazepan-1-yl]-6-amino-3-pyridazinyl}phenol]
50 to 500 nM		50 to 500 nM		++ (++=30-70%)	30 to 70%	Nc1nnc(-c2ccccc2O)cc1N1CCC2(CCN(c3ccnc(C#CCNC(=O)c4cc5ncccn5n4)n3)CC2)C1 [Compound P-34, N-(3-(4-(2-(3-amino-6-(2-hydroxyphenyl)pyridazin-4-yl)-2,8-diazaspiro[4.5]decan-8-yl)pyrimidin-2-yl)prop-2-yn-1-yl)pyrazolo[1,5-a]pyrimidine-2-carboxamide]
50 to 500 nM		50 to 500 nM		+++ (+++=>70%)	30 to 70%	C[C@@H]1CCN1CC#Cc1nccc(N2CCCN(c3cc(-c4ccccc4O)nnc3N)CC2)n1 [Compound P-299, 0-{5-[4-(2-{3-[(R)-2-methyl-1-azetidinyl]-1-propynyl}-4-pyrimidinyl)-1,4-diazepan-1-y1]-6-amino-3-pyridaziny1} phenol]
50 to 500 nM		50 to 500 nM		+++ (+++=>70%)	30 to 70%	C[C@@H]1CCN(c2cc(-c3ccccc3O)nnc2N)CCN1c1ccnc(C#CCNC(=O)OC2CC/C=C\CCC2)n1 (stereo partly drawn) [Compound P-268, 4-[(R)-4-(2-{3-[(Z)-4-cycloocten-1-yloxycarbonylamino]-1-propynyl}-4-pyrimidinyl)-5-methyl-1,4-diazepan-1-yl]-6-(o-hydroxyphenyl)-3-pyridazinamine]
50 to 500 nM		50 to 500 nM		+++ (+++=>70%)	30 to 70%	C[C@@H]1CCN(c2cc(-c3ccccc3O)nnc2N)CCN1c1ccnc(C#C[C@H](O)C2CC2)n1 [Compound P-266, 0-{5-[(R)-4-{2-[(R)-3-cyclopropyl-3-hydroxy-1-propynyl]-4-pyrimidinyl}-5-methyl-1,4-diazepan-1-yl]-6-amino-3-pyridaziny1} phenol]
50 to 500 nM		50 to 500 nM		+ (+=<30%)	< 30%	Cn1cnc(C(=O)NCC#Cc2nccc(N3CCN(c4cc(-c5ccccc5O)nnc4N)CC3)n2)c1 [Compound P-67, N-(3-(4-(4-(3-amino-6-(2-hydroxyphenyl)pyridazin-4-yl)piperazin-1-yl)pyrimidin-2-yl)prop-2-yn-1-yl)-1-methyl-1H-imidazole-4-carboxamide]
50 to 500 nM		500 to 5000 nM		++ (++=30-70%)	30 to 70%	Nc1nnc(-c2ccccc2O)cc1N1CCCN(c2ccnc(C#CCN3C[C@@H]4C[C@H]3CO4)n2)CC1 [Compound P-377, 0-(5-{4-[2-(3-{(1S,4S)-2-oxa-5-azabicyclo[2.2.1]hept-5-yl}-1-propynyl)-4-pyrimidinyl]-1,4-diazepan-1-y1}-6-amino-3-pyridazinyl)phenol]
50 to 500 nM		50 to 500 nM		++ (++=30-70%)	30 to 70%	C[C@@H]1COC[C@H](C)N1CC#Cc1nccc(N2CCCN(c3cc(-c4ccccc4O)nnc3N)CC2)n1 [Compound P-318, 0-{5-[4-(2-{3-[(3R,5S)-3,5-dimethyl-4-morpholinyl]-1-propynyl}-4-pyrimidinyl)-1,4-diazepan-1-yl]-6-amino-3-pyridazinyl}phenol]
50 to 500 nM		50 to 500 nM		+++ (+++=>70%)	> 70%	Cn1ccc(OCC#Cc2nccc(N3CCCN(c4cc(-c5ccccc5O)nnc4N)CC3)n2)n1 [Compound P-108, 2-(6-amino-5-(4-(2-(3-((1-methyl-1H-pyrazol-3-yl)oxy)prop-1-yn-1-yl)pyrimidin-4-yl)-1,4-diazepan-1-yl)pyridazin-3-yl)phenol]
50 to 500 nM		50 to 500 nM		??	30 to 70%	C/C=C/c1nccc(N2CCCN(c3cc(-c4ccccc4O)nnc3N)CC2)n1 [Compound P-158, o-(6-amino-5-{4-[2-(1-propenyl)-4-pyrimidinyl]-1,4-diazepan-1-yl}-3-pyridazinyl)phenol]
50 to 500 nM		50 to 500 nM		++ (++=30-70%)	30 to 70%	Nc1nnc(-c2ccccc2O)cc1N1CCN(c2ccnc(C#CCNC(=O)C3COc4ccccc4O3)n2)CC1 (stereo not shown) [Compound P-61, N-(3-(4-(4-(3-amino-6-(2-hydroxyphenyl)pyridazin-4-yl)piperazin-1-yl)pyrimidin-2-yl)prop-2-yn-1-yl)-2,3-dihydrobenzo[b][1,4]dioxine-2-carboxamide]
50 to 500 nM		50 to 500 nM		++ (++=30-70%)	30 to 70%	CC(C)(C)OC(=O)N1CCC(F)(C#Cc2nccc(N3CCCN(c4cc(-c5ccccc5O)nnc4N)CC3)n2)CC1 [Compound P-349]

Structure (SMILES)	DC50 [1]	SMARCA2 % Degradation @ 1 μM ([1]; 1 μM)	DC50 [2]	inhibition at 1 µM ([2]; 1 μM)	SMARCA2 % Degradation @ 1 μM ([1]; @ 1 μM)	inhibition at 1 µM ([2]; @ 1 μM)
CC1(F)CCN(CC#Cc2nccc(N3CC4CCC(C3)N4c3cc(-c4ccccc4O)nnc3N)n2)C1 (stereo not shown) [Compound P-193, o-[6-amino-5-(3-{2-[3-(3-fluoro-3-methyl-1-pyrrolidinyl)-1-propynyl]-4-pyrimidinyl}-3,8-diazabicyclo[3.2.1]oct-8-yl)-3-pyridazinyl]phenol]	50 to 500 nM		50 to 500 nM		++ (++=30-70%)	< 30%
NCC#Cc1nccc(N2C3CC2CN(c2cc(-c4ccccc4O)nnc2N)C3)n1 [Compound P-91, 2-(6-amino-5-(6-(2-(3-aminoprop-1-yn-1-yl)pyrimidin-4-yl)-3,6-diazabicyclo[3.1.1]heptan-3-yl)pyridazin-3-yl)phenol]	500 to 5000 nM		500 to 5000 nM		+ (+=<30%)	< 30%
Cn1ccc(NCC#Cc2nccc(N3CC4CCC(C3)N4c3cc(-c4ccccc4O)nnc3N)n2)n1 [Compound P-130, 2-(6-amino-5-(3-(2-(3-((1-methyl-1H-pyrazol-3-yl)amino)prop-1-yn-1-yl)pyrimidin-4-yl)-3,8-diazabicyclo[3.2.1]octan-8-yl)pyridazin-3-yl)phenol]	50 to 500 nM		50 to 500 nM		+++ (+++=>70%)	30 to 70%
